Test results from patent US20240091138A1, “TOPICAL C[…]” (EGIS GYÓGYSZERGYÁR ZRT., priority 2021, published 2024).

Experiments:
Solubility of pregabalin = conditions: in any solvents
Wistar rats = assay: Chronic constriction injury (CCI) rat model of neuropathy, paw withdrawal threshold with electronic von Frey; assay type: in vivo; conditions: 16.66 mg/kg
Description: Furthermore, based on the article Bennett G J, at al (Pain, A peripheral mononeuropathy in rat that produces disorders of pain sensation like those seen in man. 1988 April; 33(1):87-107) we have developed a method for the examination of the compositions of the present invention. Thus, we have examined the compositions according to the present invention also with a different model for measuring the alleviation of the peripheral neuropathic pain also. Namely, we have carried out examinations on rats using Chronic constriction injury (CCI) model. Three weeks following nerve injury rats were assessed for hind paw mechanical withdrawal thresholds. The paw withdrawal threshold (PWT) was determined with an Electronic von Frey device according to the modified up-down method of Dixon (Efficient analysis of experimental observations, Annu Rev Pharmacol Toxicol. 1980; 20:441-62). […] The method and results are shown in example 3 and on FIG. 9.
Thus, the compositions of the present invention are effective in the treatment of neuropathic pain. […]
Briefly, under isoflurane anesthesia small blunt dissection was made into the skin of rat right thigh then three loosely constrictive ligatures were placed around common sciatic nerve (chronic constriction injury CCI). Three weeks following nerve injury rats were assessed for hind paw mechanical withdrawal thresholds. […]

[1] = Pharmacokinetic studies (blood levels of pregabalin); conditions: during topical treatment

SMILES: CC(C)C[C@H](CN)CC(=O)O [pregabalin]
- Solubility (Solubility of pregabalin): poor
- reduction of hypersensitivity after oral administration (Wistar rats): not able to reduce hypersensitivity
- amount of pregabalin entering the bloodstream [1]: very small amounts
